Results taken from ChEMBL document CHEMBL1201862, “PubChem BioAssay data set” (2004).
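Where inhibition never reached the appropriate level, the endpoint shown equals the highest concentration tested. Otherwise, values were interpolated linearly from a five-concentration, 48-hour dose response in 96-well plates. Abbreviation: GI50, concentration required for 50% inhibition of growth.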 The source made the active and inactive calls. Cut-off read from the data, not from the text of the source: active = GI50 up to about 1.1 µM and inactive = higher.

Tests used:
Assay in all cases: DTP human tumour cell line panel, 48 h
[1] = test system: SK-MEL-2
[2] = test system: HL-60
[3] = test system: OVCAR-8
[4] = test system: UO-31
[5] = test system: MDA-N
[6] = test system: ACHN
[7] = test system: T47D
[8] = test system: OVCAR-3
[9] = test system: 786-0
[10] = test system: RPMI-8226
[11] = test system: HOP-92
[12] = test system: K562
[13] = test system: CCRF-CEM
[14] = test system: HOP-62
[15] = test system: COLO 205
[16] = test system: PC-3
[17] = test system: DU-145
[18] = test system: OVCAR-4
[19] = test system: SK-MEL-5
[20] = test system: LOX IMVI

Structure (SMILES)	GI50 [1]	GI50 [2]	GI50 [3]	GI50 [4]	GI50 [5]	GI50 [6]	GI50 [7]	GI50 [8]	GI50 [9]	GI50 [10]	GI50 [11]	GI50 [12]	GI50 [13]	GI50 [14]	GI50 [15]	GI50 [16]	GI50 [17]	GI50 [18]	GI50 [19]	GI50 [20]
CCOC(=O)C(Cc1ccc(N(CCCl)CCCl)cc1)NC(=O)C(Cc1ccccc1)NC=O (centres undefined)	0.161 µM (active)	0.0638 µM (active)	0.258 µM (active)	0.0689 µM (active)	0.24 µM (active)	0.00959 µM (active)	0.092 µM (active)	0.147 µM (active)	0.116 µM (active)	0.187 µM (active)	0.126 µM (active)	0.188 µM (active)	0.0526 µM (active)	0.274 µM (active)	0.197 µM (active)	0.27 µM (active)	0.139 µM (active)	0.0208 µM (active)	0.219 µM (active)	0.0713 µM (active)
O=Cc1cc2c(s1)C(=O)c1sccc1C2=O	0.337 µM (active)	0.863 µM (active)	0.338 µM (active)	0.411 µM (active)	0.0484 µM (active)	0.585 µM (active)	2.28 µM (inactive)	0.222 µM (active)	1.03 µM (active)	0.309 µM (active)	1.46 µM (inactive)	0.541 µM (active)	0.476 µM (active)	1.82 µM (inactive)	2.21 µM (inactive)	2.08 µM (inactive)	0.18 µM (active)	0.22 µM (active)	0.129 µM (active)	0.0376 µM (active)
COc1cc(-c2c(C#N)c(N)c(C#N)c3c2COc2ccccc2-3)cc(OC)c1OC	22.6 µM (inactive)	> 100 µM (inactive)	28.6 µM (inactive)	> 35.8 µM (inactive)	> 100 µM (inactive)	27.8 µM (inactive)	> 46.9 µM (inactive)	> 42.8 µM (inactive)	7.93 µM (inactive)	> 22.9 µM (inactive)	16.9 µM (inactive)	> 60.4 µM (inactive)	> 100 µM (inactive)	7.5 µM (inactive)	> 100 µM (inactive)	> 25.6 µM (inactive)	43.4 µM (inactive)	> 22.8 µM (inactive)	> 86.3 µM (inactive)	39.2 µM (inactive)
CCOc1cc(NC(C)=O)ccc1C(=O)NN1C(=O)/C(=C/c2ccc(Cl)cc2)N=C1c1ccccc1	28.3 µM (inactive)	34.1 µM (inactive)	34 µM (inactive)	34.9 µM (inactive)	34.3 µM (inactive)	51.1 µM (inactive)	13.2 µM (inactive)	33 µM (inactive)	74.1 µM (inactive)	25.9 µM (inactive)	33.9 µM (inactive)	35.2 µM (inactive)	25 µM (inactive)	44.9 µM (inactive)	33.7 µM (inactive)	43.5 µM (inactive)	68.5 µM (inactive)	22.3 µM (inactive)	24.2 µM (inactive)	62.7 µM (inactive)
CC(=O)C1=C(C)N2C(=NC3=C(CCc4ccccc43)C2c2ccc(F)cc2)S1 (centres undefined)	> 100 µM (inactive)	28.4 µM (inactive)	62.5 µM (inactive)	52.7 µM (inactive)	55.6 µM (inactive)	77.6 µM (inactive)	63.5 µM (inactive)	67.9 µM (inactive)	> 100 µM (inactive)	17.5 µM (inactive)	63.1 µM (inactive)	31.3 µM (inactive)	40.3 µM (inactive)	84.1 µM (inactive)	58.1 µM (inactive)	89.7 µM (inactive)	> 100 µM (inactive)	56.1 µM (inactive)	30.1 µM (inactive)	44.2 µM (inactive)
Nc1nc(Cl)cc(NCC2(O)CCCC2)n1	> 100 µM (inactive)	> 100 µM (inactive)	> 100 µM (inactive)	78.9 µM (inactive)	> 100 µM (inactive)	> 100 µM (inactive)	> 100 µM (inactive)	> 100 µM (inactive)	> 100 µM (inactive)	> 100 µM (inactive)	> 100 µM (inactive)	> 100 µM (inactive)	> 100 µM (inactive)	> 100 µM (inactive)	> 100 µM (inactive)	> 100 µM (inactive)	> 100 µM (inactive)	> 100 µM (inactive)	> 100 µM (inactive)	> 100 µM (inactive)
CC(NC(=O)c1c(O)[nH]c(=S)[nH]c1=O)c1ccc([N+](=O)[O-])cc1 (centres undefined)	32.5 µM (inactive)	> 100 µM (inactive)	–	> 100 µM (inactive)	> 100 µM (inactive)	> 100 µM (inactive)	37.2 µM (inactive)	36.1 µM (inactive)	94.6 µM (inactive)	> 100 µM (inactive)	39.7 µM (inactive)	43.7 µM (inactive)	40.8 µM (inactive)	58.3 µM (inactive)	> 100 µM (inactive)	40.7 µM (inactive)	75.7 µM (inactive)	49 µM (inactive)	> 100 µM (inactive)	90.8 µM (inactive)
Cc1cc(S(=O)(=O)Nc2nc(N)nc(N(C)C)n2)c(S)cc1Cl	> 10 µM (inactive)	> 10 µM (inactive)	> 10 µM (inactive)	> 10 µM (inactive)	> 10 µM (inactive)	> 10 µM (inactive)	> 10 µM (inactive)	> 10 µM (inactive)	> 10 µM (inactive)	> 10 µM (inactive)	> 10 µM (inactive)	> 10 µM (inactive)	> 10 µM (inactive)	> 10 µM (inactive)	> 10 µM (inactive)	> 10 µM (inactive)	> 10 µM (inactive)	> 10 µM (inactive)	> 10 µM (inactive)	> 10 µM (inactive)
Cc1sc2ncnc(NCCc3ccccc3)c2c1C	14.8 µM (inactive)	9.02 µM (inactive)	11.8 µM (inactive)	15.6 µM (inactive)	10.1 µM (inactive)	12.4 µM (inactive)	2.29 µM (inactive)	14.2 µM (inactive)	16 µM (inactive)	10.2 µM (inactive)	0.94 µM (active)	2 µM (inactive)	13 µM (inactive)	12.8 µM (inactive)	11 µM (inactive)	17.3 µM (inactive)	18.8 µM (inactive)	13.6 µM (inactive)	1.33 µM (inactive)	4.82 µM (inactive)
COc1ccc2c(c1O)[C@@]13CCCC=C1[C@@H](C2)N(C)CC3	36.7 µM (inactive)	21.4 µM (inactive)	> 100 µM (inactive)	39 µM (inactive)	61.5 µM (inactive)	> 100 µM (inactive)	90.2 µM (inactive)	50.7 µM (inactive)	> 100 µM (inactive)	29.3 µM (inactive)	39.7 µM (inactive)	21.3 µM (inactive)	27.5 µM (inactive)	> 100 µM (inactive)	97.1 µM (inactive)	59.6 µM (inactive)	> 100 µM (inactive)	> 100 µM (inactive)	69.2 µM (inactive)	41.4 µM (inactive)
Cc1coc2c1CC1OC1(C)CCC1OC1(C)C2 (centres undefined)	> 100 µM (inactive)	> 100 µM (inactive)	> 100 µM (inactive)	> 100 µM (inactive)	> 100 µM (inactive)	> 100 µM (inactive)	> 100 µM (inactive)	> 100 µM (inactive)	> 100 µM (inactive)	> 100 µM (inactive)	> 100 µM (inactive)	> 100 µM (inactive)	> 100 µM (inactive)	> 100 µM (inactive)	> 100 µM (inactive)	> 100 µM (inactive)	> 100 µM (inactive)	> 100 µM (inactive)	> 100 µM (inactive)	> 100 µM (inactive)
COc1ccc(/C(=N/OCCCC(=O)O)c2cccs2)cc1	> 100 µM (inactive)	> 100 µM (inactive)	> 100 µM (inactive)	> 100 µM (inactive)	> 100 µM (inactive)	> 100 µM (inactive)	> 100 µM (inactive)	> 100 µM (inactive)	> 100 µM (inactive)	> 100 µM (inactive)	> 100 µM (inactive)	> 100 µM (inactive)	> 100 µM (inactive)	> 100 µM (inactive)	> 100 µM (inactive)	> 100 µM (inactive)	> 100 µM (inactive)	> 100 µM (inactive)	> 100 µM (inactive)	> 100 µM (inactive)
CC(C)(C)c1cc(/C=C(\C#N)C(=O)NCCO)cc(C(C)(C)C)c1O	17.6 µM (inactive)	15.7 µM (inactive)	38.6 µM (inactive)	19.9 µM (inactive)	18.7 µM (inactive)	27.2 µM (inactive)	20.1 µM (inactive)	14.6 µM (inactive)	21.8 µM (inactive)	12.3 µM (inactive)	45.7 µM (inactive)	24 µM (inactive)	15.1 µM (inactive)	21.2 µM (inactive)	20.5 µM (inactive)	18.2 µM (inactive)	34 µM (inactive)	17.8 µM (inactive)	14.9 µM (inactive)	25.1 µM (inactive)
O=C(CNC(c1ccccc1)(c1ccccc1)c1ccccc1)NC1CCCCC1NC(=O)CNC(c1ccccc1)(c1ccccc1)c1ccccc1 (centres undefined)	> 100 µM (inactive)	> 100 µM (inactive)	> 100 µM (inactive)	> 100 µM (inactive)	> 100 µM (inactive)	> 100 µM (inactive)	> 100 µM (inactive)	> 100 µM (inactive)	85.7 µM (inactive)	> 100 µM (inactive)	12 µM (inactive)	> 100 µM (inactive)	> 100 µM (inactive)	27.8 µM (inactive)	> 100 µM (inactive)	> 100 µM (inactive)	> 100 µM (inactive)	> 100 µM (inactive)	> 100 µM (inactive)	> 100 µM (inactive)
